According to patent US10329286B2, “FXR (NR1H4) modulating compounds” (Gilead Sciences, Inc., priority 2016, dated 2019):
Where two headings read alike, the source gives them in different places.

Experiments:
[1] = target: human FXR alpha ligand binding domain (Homo sapiens (Human), UniProt Q96RI1); assay: FRET activity assay (LANCE; ligand mediated FXR-LBD / SRC-1 cofactor peptide interaction); type: biochemical
Protocol: Determination of a ligand mediated cofactor peptide interaction to quantify ligand binding to the nuclear receptor FXR was performed as follows.
Preparation of human FXR alpha ligand binding domain: The human FXRalpha LBD was expressed in E. coli strain BL21(DE3) as an N-terminally GST tagged fusion protein. The DNA encoding the FXR ligand binding domain was cloned into vector pDEST15 (Invitrogen). Expression was under control of an IPTG inducible T7 promoter. The amino acid boundaries of the ligand binding domain were amino acids 187-472 of Database entry NM_005123 (RefSeq).
Expression and purification of the FXR-LBD: An overnight preculture of a transformed E. coli strain was diluted 1:20 in LB-Ampicillin medium and grown at 30° C. to an optical density of OD600=0.4-0.6. Gene expression was then induced by addition of 0.5 mM IPTG. Cells were incubated an additional 6 h at 30° C., 180 rpm. Cells were collected by centrifugation (7000×g, 7 min, rt). Per liter of original cell culture, cells were resuspended in 10 mL lysis buffer (50 mM Glucose, 50 mM Tris pH 7.9, 1 mM EDTA and 4 mg/mL lysozyme) and left on ice for 30 min. Cells were then subjected to sonication and cell debris removed via centrifugation (22000×g, 30 min, 4° C.). Per 10 mL of supernatant 0.5 mL prewashed Glutathione 4B sepharose slurry (Qiagen) was added and the suspension kept slowly rotating for 1 h at 4° C. Glutathione 4B sepharose beads were pelleted by centrifugation (2000×g, 15 sec, 4° C.) and washed twice in wash buffer (25 mM Tris, 50 mM KCl, 4 mM MgCl2 and 1M NaCl). The pellet was resuspended in 3 mL elution buffer per liter of original culture (elution buffer: 20 mM Tris, 60 mM KCl, 5 mM MgCl2 and 80 mM glutathione added immediately prior to use as powder). The suspension was left rotating for 15 min at 4° C., the beads pelleted and eluted again with half the volume of elution buffer than the first time. The eluates were pooled and dialysed overnight in 20 mM Hepes buffer (pH 7.5) containing 60 mM KCl, 5 mM MgCl2 as well as 1 mM dithiothreitol and 10% (v/v) glycerol. The protein was analysed by SDS-Page.
The method measures the ability of putative ligands to modulate the interaction between the purified bacterial expressed FXR ligand binding domain (LBD) and a synthetic biotinylated peptide based on residues 676-700 of SRC-1 (LCD2, 676-700). The sequence of the peptide used was B-[…]-COOH (SEQ ID NO: 1) where the N-terminus was biotinylated (B). The ligand binding domain (LBD) of FXR was expressed as fusion protein with GST in BL-21 cells using the vector pDEST15. Cells were lysed by sonication, and the fusion proteins purified over glutathione sepharose (Pharmacia) according to the manufacturers instructions. For screening of compounds for their influence on the FXR-peptide interaction, the Perkin Elmer LANCE technology was applied. This method relies on the binding dependent energy transfer from a donor to an acceptor fluorophor attached to the binding partner of interest. For ease of handling and reduction of background from compound fluorescence LANCE technology makes use of generic fluorophore labels and time resolved detection.
Assays were done in a final volume of 25 μL in a 384 well plate, in a Tris-based buffer (20 mM Tris-HCl pH 7.5; 60 mM KCl, 5 mM MgCl2; 35 ng/μL BSA), containing 20-60 ng/well recombinantly expressed FXR-LBD fused to GST, 200-600 nM N-terminally biotinylated peptide, representing SRC1 aminoacids 676-700, 200 ng/well Streptavidin-x1APC conjugate (Prozyme) and 6-10 ng/well Eu W1024-antiGST (Perkin Elmer). DMSO content of the samples was kept at 1%. After generation of the assay mix and diluting the potentially FXR modulating ligands, the assay was equilibrated for 1 h in the dark at rt in FIA-plates black 384 well (Greiner). The LANCE signal was detected by a Perkin Elmer VICTOR2VTM Multilabel Counter. The results were visualized by plotting the ratio between the emitted light at 665 and 615 nm. […]

[2] = target: FXR ligand binding domain (Homo sapiens (Human), UniProt Q96RI1); assay: Mammalian one hybrid (M1H) Gal4 reporter gene assay in HEK293 cells; type: cell-based
FXR ligand binding domain, sequence (Q96RI1 other isoform, or with tags, fused parts or gaps): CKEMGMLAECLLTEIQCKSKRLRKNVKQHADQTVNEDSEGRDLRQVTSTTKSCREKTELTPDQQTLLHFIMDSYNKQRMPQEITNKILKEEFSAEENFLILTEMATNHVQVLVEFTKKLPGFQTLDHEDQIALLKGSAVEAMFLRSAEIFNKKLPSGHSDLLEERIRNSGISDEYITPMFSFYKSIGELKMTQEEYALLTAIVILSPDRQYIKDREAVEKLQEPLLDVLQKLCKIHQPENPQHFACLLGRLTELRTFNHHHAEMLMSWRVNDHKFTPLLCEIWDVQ
Protocol: Determination of a ligand mediated Gal4 promoter driven transactivation to quantify ligand binding mediated activation of FXR was performed as follows.
The cDNA part encoding the FXR ligand binding domain was cloned into vector pCMV-BD (Stratagene) as a fusion to the yeast GAL4 DNA binding domain under the control of the CMV promoter. […] The plasmid pFR-Luc (Stratagene) was used as the reporter plasmid, containing a synthetic promoter with five tandem repeats of the yeast GAL4 binding sites, driving the expression of the Photinus pyralis (American firefly) luciferase gene as the reporter gene. In order to improve experimental accuracy the plasmid pRL-CMV (Promega) was cotransfected. pRL-CMV contains the constitutive CMV promoter, controlling the expression of the Renilla reniformis luciferase. All Gal4 reporter gene assays were done in HEK293 cells (obtained from DSMZ, Braunschweig, Germany) grown in MEM with L-Glutamine and Earle's BSS supplemented with 10% fetal bovine serum, 0.1 mM nonessential amino acids, 1 mM sodium pyruvate, and 100 units Penicilin/[…] per mL at 37° C. in 5% CO2. Medium and supplements were obtained from Invitrogen. For the assay, […] cells were plated per well in 96 well plates in 100 μL per well MEM without Phenol Red and L-Glutamine and with Earle's BSS supplemented with 10% charcoal/dextran treated FBS (HyClone, South Logan, Utah), 0.1 mM nonessential amino acids, 2 mM glutamine, 1 mM sodium pyruvate, and 100 units Penicilin/[…] per mL, incubated at 37° C. in 5% CO2. The following day the cells were >90% confluence. […] MEM with the same composition as used for plating cells was added 2-4 h after addition of transfection mixture. Then compound stocks, prediluted in MEM were added (final vehicle concentration not exceeding 0.1%). […] All experiments were done in triplicates.

[3] = GST-FXR-LBD, biotinylated SRC-1 peptide 676-700, read-out: FRET EC50
[4] = Gal4-FXR-LBD luciferase reporter, HEK293 cells, 16 h, read-out: M1H EC50

human FXR alpha ligand binding domain, sequence (Q96RI1 other isoform, or with tags, fused parts or gaps): as above

Row | SMILES | EC50 [1] [nM] | EC50 [2] [nM] | EC50 [1, 3] [nM] | EC50 [2, 4] [nM]
1 | O=C(O)c1ccnc(N2CC(O)(c3ccc(OCc4c(-c5c(Cl)cccc5Cl)noc4C4CC4)cc3Cl)C2)c1 [Comparative Compound 1, reference compound] | 14 | 774 | – | –
2 | O=C(O)c1ccnc(N2CC(O)(c3ccc(OCc4c(-c5c(Cl)cncc5Cl)noc4C4CC4)cc3Cl)C2)c1 [Comparative Compound 2, reference compound] | – | – | 48 | 744
3 | O=C(O)c1cc(N2CC(O)(c3ccc(OCc4c(-c5c(Cl)cccc5Cl)noc4C4CC4)cc3Cl)C2)nc(C(F)(F)F)c1 [Comparative Compound 3, reference compound] | – | – | 47 | 131
4 | O=C(O)c1ccc(N2CC(O)(c3ccc(OCc4c(-c5c(Cl)cncc5Cl)noc4C4CC4)cc3Cl)C2)nc1 [Example 1, 6-(3-(2-chloro-4-((5-cyclopropyl-3-(3,5-dichloropyridin-4-yl)isoxazol-4-yl)methoxy)phenyl)-3-hydroxyazetidin-1-yl)nicotinic acid] | – | – | 6.1 | 95
5 | O=C(O)c1ccc(N2CC(O)(c3ccc(OCc4c(-c5c(Cl)cccc5Cl)noc4C4CC4)cc3Cl)C2)nc1 [Example 2, 6-(3-(2-chloro-4-((5-cyclopropyl-3-(2,6-dichlorophenyl)isoxazol-4-yl)methoxy)phenyl)-3-hydroxyazetidin-1-yl)nicotinic acid] | – | – | 2.6 | 7.1
6 | Cc1nc(N2CC(O)(c3ccc(OCc4c(-c5c(Cl)cccc5Cl)noc4C4CC4)cc3Cl)C2)ccc1C(=O)O [Example 3, 6-(3-(2-chloro-4-((5-cyclopropyl-3-(2,6-dichlorophenyl)isoxazol-4-yl)methoxy)phenyl)-3-hydroxyazetidin-1-yl)-2-methylnicotinic acid] | – | – | 4.4 | 6.9
7 | Cc1cc(C(=O)O)cnc1N1CC(O)(c2ccc(OCc3c(-c4c(Cl)cccc4Cl)noc3C3CC3)cc2Cl)C1 [Example 4, 6-(3-(2-chloro-4-((5-cyclopropyl-3-(2,6-dichlorophenyl)isoxazol-4-yl)methoxy)phenyl)-3-hydroxyazetidin-1-yl)-5-methylnicotinic acid] | – | – | 3.9 | 5.1
8 | O=C(O)c1cnc(N2CC(O)(c3ccc(OCc4c(-c5c(Cl)cccc5Cl)noc4C4CC4)cc3Cl)C2)c(F)c1 [Example 5, 6-(3-(2-chloro-4-((5-cyclopropyl-3-(2,6-dichlorophenyl)isoxazol-4-yl)methoxy)phenyl)-3-hydroxyazetidin-1-yl)-5-fluoronicotinic acid] | – | – | 4.8 | 4.5
9 | O=C(O)c1ccc(N2CC(O)(c3ccc(OCc4c(-c5c(Cl)cccc5Cl)noc4C4CC4)cc3Cl)C2)nc1C(F)(F)F [Example 6, 6-(3-(2-chloro-4-((5-cyclopropyl-3-(2,6-dichlorophenyl)isoxazol-4-yl)methoxy)phenyl)-3-hydroxyazetidin-1-yl)-2-(trifluoromethyl)nicotinic acid] | – | – | 3.1 | 56
10 | Cc1cc(N2CC(O)(c3ccc(OCc4c(-c5c(Cl)cccc5Cl)noc4C4CC4)cc3Cl)C2)ncc1C(=O)O [Example 7, 6-(3-(2-chloro-4-((5-cyclopropyl-3-(2,6-dichlorophenyl)isoxazol-4-yl)methoxy)phenyl)-3-hydroxyazetidin-1-yl)-4-methylnicotinic acid] | – | – | 8.5 | 6.7
11 | COc1cccc(OC)c1-c1noc(C2CC2)c1COc1ccc(C2(O)CN(c3ncc(C(=O)O)cc3F)C2)c(Cl)c1 [Example 8, 6-(3-(2-chloro-4-((5-cyclopropyl-3-(2,6-dimethoxyphenyl)isoxazol-4-yl)methoxy)phenyl)-3-hydroxyazetidin-1-yl)-5-fluoronicotinic acid] | – | – | 15 | 593
12 | Cc1cc(Cl)c(-c2noc(C3CC3)c2COc2ccc(C3(O)CN(c4ncc(C(=O)O)cc4F)C3)c(Cl)c2)c(Cl)c1 [Example 9, 6-(3-(2-chloro-4-((5-cyclopropyl-3-(2,6-dichloro-4-methylphenyl)isoxazol-4-yl)methoxy)phenyl)-3-hydroxyazetidin-1-yl)-5-fluoronicotinic acid] | – | – | 57 | 26
13 | O=C(O)c1cnc(N2CC(O)(c3ccc(OCc4c(-c5c(Cl)cncc5Cl)noc4C4CC4)cc3Cl)C2)c(F)c1 [Example 10, 6-(3-(2-chloro-4-((5-cyclopropyl-3-(3,5-dichloropyridin-4-yl)isoxazol-4-yl)methoxy)phenyl)-3-hydroxyazetidin-1-yl)-5-fluoronicotinic acid] | – | – | 3.4 | 6.4
14 | O=C(O)c1cnc(N2CC(O)(c3ccc(OCc4c(C5CC5)cnn4-c4c(Cl)cccc4Cl)cc3Cl)C2)c(F)c1 [Example 11, 6-(3-(2-chloro-4-((4-cyclopropyl-1-(2,6-dichlorophenyl)-1H-pyrazol-5-yl)methoxy)phenyl)-3-hydroxyazetidin-1-yl)-5-fluoronicotinic acid] | – | – | 3.8 | 4.9
